Data set [1] has as its target Inhibitor of nuclear factor kappa-B kinase subunit beta (Homo sapiens) (UniProt O14920). The data set can be described thus: Inhibition of human IKBKB at 1 uM using KKKKERLLDDRHDSGLDSMKDEE as substrate in presence of [gamma33P]-ATP by HotSpot assay relative to control.
The target of data set [2] is Serine/threonine-protein kinase Sgk3 (Homo sapiens) (UniProt Q96BR1). The experiment in a line: Inhibition of human SGK3 at 1 uM using GRPRTSSFAEG as substrate in presence of [gamma33P]-ATP by HotSpot assay relative to control.
The species entered for a further data set is Homo sapiens. The experiment in a line: Inhibition of human BRAF V600E at 1 uM using MEK1 as substrate in presence of [gamma33P]-ATP by HotSpot assay relative to control.
For data set [3], the system named is EML4-ALK (Homo sapiens), Q9UM73+Q9HC35 [F1174I]. To be noted: BaF3, dose 200.0 nmol/L, time 3-5 weeks.
For data set [4], the system named is Platelet-derived growth factor receptor alpha (Homo sapiens), P16234 [D842V]. The data set can be described thus: Inhibition of human PDGFRalpha D842V mutant at 1 uM using poly (Glu, Tyr)4:1 as substrate in presence of [gamma33P]-ATP by HotSpot assay relative to control.
In the next data set the test system is NCI-H2228. The experiment in a line: Antitumor activity against ALK positive human NCI-H2228 cells xenografted in CB-17/SCID orthotopic brain tumor mouse model assessed as reduction in tumor burden in brain at 50 mg/kg, po administered daily and measured after 64 days by H&E staining based analysis. It is filed as functional, organism-based. To be noted: time 64.0 day. On the technique in general: In xenograft studies the graft and the host belong to different species.

Data set [5] in a line: Toxicity in SCID Beige mouse xenografted with ALK positive human KARPAS-299 cells assessed as effect on body weight at 10 to 50 mg/kg. It is filed as organism-based. To be noted: in vivo, dose 10-50 mg/kg.
The target of data set [6] is Mitogen-activated protein kinase kinase kinase kinase 4 (Homo sapiens) (UniProt O95819). The data set can be described thus: Inhibition of human MAP4K4 at 1 uM using MBP as substrate in presence of [gamma33P]-ATP by HotSpot assay relative to control.
Another data set concerns the target Insulin receptor (Homo sapiens, UniProt P06213).
The target in data set [7] is Protein kinase C iota type (Homo sapiens) (UniProt P41743). The experiment in a line: Inhibition of human PRKCI at 1 uM using ERMRPRKRQGSVRRRV as substrate in presence of [gamma33P]-ATP by HotSpot assay relative to control.
The test system of data set [8] is Serine/threonine-protein kinase A-Raf (Homo sapiens), P10398 [Y301D,Y302D]. The experiment in a line: Inhibition of human ARAF Y301D/Y302D double mutant at 1 uM using MEK1 as substrate in presence of [gamma33P]-ATP by HotSpot assay relative to control.
Data set [9] addresses Serine/threonine-protein kinase PAK 3 (Homo sapiens) (UniProt O75914). The experiment in a line: Inhibition of human PAK3 at 1 uM using RRRLSFAEPG as substrate in presence of [gamma33P]-ATP by HotSpot assay relative to control.
In data set [10] the target is Protein-tyrosine kinase 2-beta (Homo sapiens, UniProt Q14289). The experiment in a line: Inhibition of human PTK2B using poly (Glu, Tyr)4:1 as substrate in presence of [gamma33P]-ATP by HotSpot assay.
The target in data set [11] is BDNF/NT-3 growth factors receptor (Homo sapiens, UniProt Q16620). The experiment in a line: Inhibition of human NTRK2 using poly (Glu, Tyr)4:1 as substrate in presence of [gamma33P]-ATP by HotSpot assay.

Each structure is given as a SMILES string. Active and inactive are the calls of the source. No cut-off for these calls is given here.

The source of these data is ChEMBL document CHEMBL5696443 (Clin Cancer Res, 2016).

Insulin receptor, sequence (P06213 28-758 limits assumed): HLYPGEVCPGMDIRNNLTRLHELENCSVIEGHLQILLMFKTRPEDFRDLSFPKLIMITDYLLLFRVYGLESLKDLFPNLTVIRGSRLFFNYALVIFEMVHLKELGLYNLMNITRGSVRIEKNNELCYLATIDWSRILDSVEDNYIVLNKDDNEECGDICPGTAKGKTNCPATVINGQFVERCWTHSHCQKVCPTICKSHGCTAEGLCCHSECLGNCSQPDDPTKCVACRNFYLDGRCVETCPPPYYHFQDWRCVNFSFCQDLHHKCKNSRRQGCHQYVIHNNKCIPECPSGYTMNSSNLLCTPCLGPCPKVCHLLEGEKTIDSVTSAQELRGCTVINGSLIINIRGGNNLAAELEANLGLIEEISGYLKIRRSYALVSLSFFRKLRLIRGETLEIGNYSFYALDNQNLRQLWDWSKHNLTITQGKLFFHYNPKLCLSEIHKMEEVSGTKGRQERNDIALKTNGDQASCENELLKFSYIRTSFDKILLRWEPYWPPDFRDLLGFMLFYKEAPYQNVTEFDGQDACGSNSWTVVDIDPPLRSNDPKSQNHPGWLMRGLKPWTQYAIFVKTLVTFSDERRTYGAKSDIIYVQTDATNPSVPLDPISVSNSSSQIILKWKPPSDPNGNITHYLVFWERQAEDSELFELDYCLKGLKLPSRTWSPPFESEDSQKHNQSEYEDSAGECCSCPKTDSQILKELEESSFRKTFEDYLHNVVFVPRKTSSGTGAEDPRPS
Insulin receptor, sequence (P06213 763-1382 limits assumed): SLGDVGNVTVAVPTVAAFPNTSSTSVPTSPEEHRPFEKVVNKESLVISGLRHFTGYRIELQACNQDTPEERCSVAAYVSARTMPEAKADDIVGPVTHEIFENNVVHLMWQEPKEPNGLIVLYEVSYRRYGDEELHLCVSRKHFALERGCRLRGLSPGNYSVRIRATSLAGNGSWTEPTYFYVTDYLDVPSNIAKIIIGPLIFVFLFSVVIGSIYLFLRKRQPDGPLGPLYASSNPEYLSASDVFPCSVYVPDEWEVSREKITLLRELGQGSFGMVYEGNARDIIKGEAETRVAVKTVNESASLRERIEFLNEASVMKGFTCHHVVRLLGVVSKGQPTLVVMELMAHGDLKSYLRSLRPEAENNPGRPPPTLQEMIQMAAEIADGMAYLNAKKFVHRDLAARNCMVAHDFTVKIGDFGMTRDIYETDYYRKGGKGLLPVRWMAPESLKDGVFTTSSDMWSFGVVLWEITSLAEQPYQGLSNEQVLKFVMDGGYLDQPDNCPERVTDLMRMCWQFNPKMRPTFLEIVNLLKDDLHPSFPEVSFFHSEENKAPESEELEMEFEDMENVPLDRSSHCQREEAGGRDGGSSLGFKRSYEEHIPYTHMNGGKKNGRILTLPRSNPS
Serine/threonine-protein kinase PAK 3 (Homo sapiens), sequence (O75914 whole entry, looked up): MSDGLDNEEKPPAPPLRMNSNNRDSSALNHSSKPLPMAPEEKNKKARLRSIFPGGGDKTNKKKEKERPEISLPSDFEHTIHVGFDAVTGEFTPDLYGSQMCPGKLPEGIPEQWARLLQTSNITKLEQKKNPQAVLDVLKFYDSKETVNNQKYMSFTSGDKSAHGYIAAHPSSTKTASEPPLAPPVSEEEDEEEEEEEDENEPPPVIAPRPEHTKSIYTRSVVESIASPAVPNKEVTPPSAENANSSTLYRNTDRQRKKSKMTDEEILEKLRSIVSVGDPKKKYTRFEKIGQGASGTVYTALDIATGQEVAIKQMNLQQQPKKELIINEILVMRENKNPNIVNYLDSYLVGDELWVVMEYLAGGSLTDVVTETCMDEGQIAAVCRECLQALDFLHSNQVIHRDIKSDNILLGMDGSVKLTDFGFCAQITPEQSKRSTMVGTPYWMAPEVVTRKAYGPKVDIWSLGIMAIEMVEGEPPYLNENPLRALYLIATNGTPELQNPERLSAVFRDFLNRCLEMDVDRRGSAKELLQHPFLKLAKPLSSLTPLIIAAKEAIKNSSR
Serine/threonine-protein kinase Sgk3 (Homo sapiens), sequence (Q96BR1 whole entry): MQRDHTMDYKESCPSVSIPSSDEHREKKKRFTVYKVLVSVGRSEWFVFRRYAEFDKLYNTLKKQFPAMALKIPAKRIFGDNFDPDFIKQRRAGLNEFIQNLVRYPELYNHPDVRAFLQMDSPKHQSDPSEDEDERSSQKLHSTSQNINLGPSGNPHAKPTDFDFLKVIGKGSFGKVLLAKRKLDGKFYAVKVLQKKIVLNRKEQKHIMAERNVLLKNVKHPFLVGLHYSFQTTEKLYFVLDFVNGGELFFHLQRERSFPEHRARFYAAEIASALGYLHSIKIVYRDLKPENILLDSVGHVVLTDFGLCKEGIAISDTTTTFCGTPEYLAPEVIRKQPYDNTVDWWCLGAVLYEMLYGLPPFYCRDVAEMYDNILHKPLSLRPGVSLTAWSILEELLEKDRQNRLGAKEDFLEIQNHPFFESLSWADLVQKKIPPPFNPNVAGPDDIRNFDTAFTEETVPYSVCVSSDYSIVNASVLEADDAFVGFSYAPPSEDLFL
Protein-tyrosine kinase 2-beta, sequence (Q14289 whole entry): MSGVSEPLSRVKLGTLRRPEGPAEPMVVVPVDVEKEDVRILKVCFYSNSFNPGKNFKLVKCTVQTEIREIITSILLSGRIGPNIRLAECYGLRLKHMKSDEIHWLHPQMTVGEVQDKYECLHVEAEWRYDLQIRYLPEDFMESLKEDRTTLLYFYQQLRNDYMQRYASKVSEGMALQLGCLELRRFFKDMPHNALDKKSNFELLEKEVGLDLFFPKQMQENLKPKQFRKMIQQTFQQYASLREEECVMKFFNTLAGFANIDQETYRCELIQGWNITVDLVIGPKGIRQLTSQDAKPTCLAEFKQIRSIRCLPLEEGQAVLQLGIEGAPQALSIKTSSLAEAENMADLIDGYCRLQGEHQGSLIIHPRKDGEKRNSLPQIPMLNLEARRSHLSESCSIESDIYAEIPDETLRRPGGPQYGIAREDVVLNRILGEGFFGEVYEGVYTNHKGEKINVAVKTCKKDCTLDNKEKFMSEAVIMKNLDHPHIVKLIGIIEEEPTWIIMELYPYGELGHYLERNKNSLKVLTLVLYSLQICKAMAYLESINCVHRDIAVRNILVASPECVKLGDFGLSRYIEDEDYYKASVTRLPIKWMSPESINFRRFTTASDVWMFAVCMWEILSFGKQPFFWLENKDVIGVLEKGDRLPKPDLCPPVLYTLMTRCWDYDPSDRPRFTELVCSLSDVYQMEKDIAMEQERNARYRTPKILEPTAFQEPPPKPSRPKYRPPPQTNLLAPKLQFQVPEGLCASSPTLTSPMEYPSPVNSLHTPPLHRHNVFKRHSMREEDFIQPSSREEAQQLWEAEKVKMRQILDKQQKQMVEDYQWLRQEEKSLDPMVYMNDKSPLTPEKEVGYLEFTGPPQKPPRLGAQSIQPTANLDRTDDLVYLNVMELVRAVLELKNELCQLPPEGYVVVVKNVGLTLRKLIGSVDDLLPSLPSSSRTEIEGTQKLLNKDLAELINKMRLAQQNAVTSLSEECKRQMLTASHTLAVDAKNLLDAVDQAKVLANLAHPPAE
Platelet-derived growth factor receptor alpha (Homo sapiens), P16234 [D842V], sequence (P16234 whole entry D842V): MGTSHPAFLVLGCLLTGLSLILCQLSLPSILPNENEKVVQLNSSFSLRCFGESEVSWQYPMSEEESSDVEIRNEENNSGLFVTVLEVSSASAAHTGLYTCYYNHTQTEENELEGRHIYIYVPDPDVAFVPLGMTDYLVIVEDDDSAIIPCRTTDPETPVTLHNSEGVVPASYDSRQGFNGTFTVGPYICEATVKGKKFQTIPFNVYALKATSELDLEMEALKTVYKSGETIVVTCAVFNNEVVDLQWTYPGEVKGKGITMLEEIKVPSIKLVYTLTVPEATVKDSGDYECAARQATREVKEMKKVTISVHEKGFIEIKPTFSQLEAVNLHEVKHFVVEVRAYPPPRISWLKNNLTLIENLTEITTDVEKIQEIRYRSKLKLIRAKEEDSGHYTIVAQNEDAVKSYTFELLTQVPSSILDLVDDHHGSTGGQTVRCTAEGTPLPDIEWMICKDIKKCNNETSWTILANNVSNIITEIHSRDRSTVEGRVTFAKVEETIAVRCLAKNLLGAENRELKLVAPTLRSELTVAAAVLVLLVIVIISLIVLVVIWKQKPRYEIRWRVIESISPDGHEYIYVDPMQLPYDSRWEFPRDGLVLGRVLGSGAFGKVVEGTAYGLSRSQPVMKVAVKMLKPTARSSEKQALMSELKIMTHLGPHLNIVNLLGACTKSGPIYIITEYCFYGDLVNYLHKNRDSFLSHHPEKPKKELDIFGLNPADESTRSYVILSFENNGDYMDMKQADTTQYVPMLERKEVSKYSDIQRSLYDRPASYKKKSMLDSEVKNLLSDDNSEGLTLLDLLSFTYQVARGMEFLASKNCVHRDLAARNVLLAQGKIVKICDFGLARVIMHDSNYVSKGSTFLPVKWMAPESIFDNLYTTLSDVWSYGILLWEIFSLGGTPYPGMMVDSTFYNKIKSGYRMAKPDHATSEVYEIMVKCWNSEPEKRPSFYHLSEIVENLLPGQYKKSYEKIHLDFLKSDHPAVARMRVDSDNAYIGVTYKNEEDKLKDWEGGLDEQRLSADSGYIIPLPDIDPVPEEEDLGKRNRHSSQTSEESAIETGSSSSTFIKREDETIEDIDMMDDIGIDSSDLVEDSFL
Description for Insulin receptor: Inhibition of INSR phosphorylation in insulin-stimulated human H4-II-E cells preincubated with compound for 30 mins followed by insulin stimulation and measured after 10 mins by immunoblot analysis

Turning to `COc1cc(N2CCC(N3CCN(C)CC3)CC2)ccc1Nc1ncc(Cl)c(Nc2ccccc2P(C)(C)=O)n1` [BRIGATINIB], the inhibition (in data set [1]; in data set [2]; in the data set listed under Homo sapiens; in [4]; in data set [6]; in [7]) was under 90% each time. For the same compound, the inhibition in [8] and in [9] was under 90% each time. Besides, the inhibition (commonly the drop in the measured response relative to a control, in per cent) in [3] is “inactive”. For the same compound, the outcome with NCI-H2228 was Active. For the same compound, the Activity result in data set [5] is “Non-Toxic”. Besides, the IC50 (in general, the concentration at which inhibition is half-maximal) at Insulin receptor is 9330 nM; in data set [10] it was 24 nM; in data set [11] it was over 1000 nM.
